Test results published in patent US20210353624A1, “METHOD OF TREATING CANCER WITH TELOTRISAT OR A PRODRUG THEREOF” (TerSera Therapeutics LLC, priority 2020, published 2021).

How the values were obtained:
[1] = Physician assessed outcomes in TELEACE subgroup with worsening tumor status at TE initiation; assay type: in vivo, human
Text: A follow-up analysis of real-world clinical practice experience with TE was initiated in patients with physician-documented worsening tumor status based on radiological reports. The analysis was directed to the subgroup of patients from the TELEACE study with worsening tumor status at the time of TE initiation. Baseline carcinoid syndrome (CS) symptoms, Eastern Cooperative Oncology Group (ECOG) performance status, and weight were compared after at least six months of TE treatment.
A total of 33 patients (17%) in TELEACE had worsened tumor status at the time TE of initiation. The mean patient age was 60 years, with 58% female and 76% white. The majority of these patients had intermediate grade tumor (67%). Prior to TE initiation, 61% had received SSA treatment, and 33% had received other NET treatment, which included liver-directed therapy, surgery, chemotherapy, targeted therapy, and Peptide Receptor Radionuclide Therapy (PRRT). The average duration of TE treatment was 14±10.5 months. […] Additionally, a majority of patients had significant improvement/remained stable in CS symptoms, ECOG performance status, and weight after TE initiation (Table 6).

[2] = tested on: normal cell lines: fallopian tube epithelium (FT240), ovarian surface epithelium (OSE22), first trimester placental fibroblasts (FTP); assay: Cell confluence of normal cell lines grown with telotristat ethyl; assay type: cell-based; conditions: 0, 5, 15 and 30 μM telotristat ethyl, 24 to 96 hours
Procedure: This example provides experiments assessing the effects of telotristat ethyl on three aggressive cancer cell lines—liposarcoma (94T778), colon cancer (HT-29), and cholangiocarcinoma (TFK-1)—and three “normal” cell lines—fallopian tube epithelium (FT240), ovarian surface epithelium (OSE22), and first trimester placental fibroblasts (FTP).
The cells were grown with 0, 5, 15 and 30 μM telotristat ethyl, plated into four-chambered slides with an initial confluence of at least 30%, and cultured for 24 to 96 hours. At the end of each 24-hour period, cell density was measured with hematoxylin, and the presence of 5-HT was assessed by immunohistochemistry. Experiments were performed in triplicate. Cell confluence was determined, and the 5-HT expression was recorded as an H-score.

CCOC(=O)[C@@H](N)Cc1ccc(-c2cc(O[C@H](c3ccc(Cl)cc3-n3ccc(C)n3)C(F)(F)F)nc(N)n2)cc1 [telotristat ethyl, (S)-ethyl 2-amino-3-(4-(2-amino-6-((R)-1-(4-chloro-2-(3-methyl-1H-pyrazol-1-yl)phenyl)-2,2,2-trifluoroethoxy)pyrimidin-4-yl)phenyl)propanoate]
Diarrhea: Improved ([1]; 33 patients with worsened tumor status at TE initiation, n = 26, P<0.001): 88%
CS symptoms compared to baseline measures ([1]; 33 patients with worsened tumor status, TE treatment 14±10.5 months): each patient experienced improvement in at least one CS symptom
Nausea: Remained the Same ([1]; worsened tumor status subgroup, n = 4): 20%
Nausea: Improved ([1]; worsened tumor status subgroup, n = 4, P=0.432): 80%
Abdominal pain: Remained the Same ([1]; worsened tumor status subgroup, n = 8): 11%
Abdominal pain: Improved ([1]; worsened tumor status subgroup, n = 8, P=0.020): 89%
Flushing: Remained the Same ([1]; worsened tumor status subgroup, n = 14): 18%
Flushing: Improved ([1]; worsened tumor status subgroup, n = 14, P=0.008): 82%
Diarrhea: Remained the Same ([1]; worsened tumor status subgroup, n = 26): 12%
Weight: Remained the Same ([1]; worsened tumor status subgroup, n = 31): 55%
Weight: Improved ([1]; worsened tumor status subgroup, n = 31, P=0.017): 32%
ECOG score: Remained the Same ([1]; worsened tumor status subgroup, n = 33): 73%
ECOG score: Improved ([1]; worsened tumor status subgroup, n = 33, P<0.001): 24%
cell confluence [2]: minimally impacted
